Test results published in ChEMBL document CHEMBL1201862, “PubChem BioAssay data set” (2004).
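Test compounds were applied to cells in 96-well plates for 48 hours at 5 doses. GI50 marks 50% less growth.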 Active and inactive are the calls of the source. No stated cut-off is given here; in the data, active = GI50 up to about 1.1 µM and inactive = higher.

Legend:
Experiment in all cases: NCI tumour cell line growth inhibition, 48 h
786-0 = test system: 786-0
A498 = test system: A498
A549 = test system: A549
ACHN = test system: ACHN
CAKI-1 = test system: CAKI-1
CCRF-CEM = test system: CCRF-CEM
COLO 205 = test system: COLO 205
DLD-1 = test system: DLD-1
DMS-114 = test system: DMS-114
DMS-273 = test system: DMS-273
EKVX = test system: EKVX
HCC 2998 = test system: HCC 2998
HCT-116 = test system: HCT-116
HCT-15 = test system: HCT-15
HL-60 = test system: HL-60
HOP-18 = test system: HOP-18
HOP-62 = test system: HOP-62
HOP-92 = test system: HOP-92
HT-29 = test system: HT-29
IGROV-1 = test system: IGROV-1
K562 = test system: K562
KM-20L2 = test system: KM-20L2
KM12 = test system: KM12
LOX IMVI = test system: LOX IMVI
LXFL 529 = test system: LXFL 529
M14 = test system: M14
M19-MEL = test system: M19-MEL
MOLT-4 = test system: MOLT-4
Malme-3M = test system: Malme-3M
NCI-H226 = test system: NCI-H226
NCI-H23 = test system: NCI-H23
NCI-H460 = test system: NCI-H460
NCI-H522 = test system: NCI-H522
OVCAR-3 = test system: OVCAR-3
OVCAR-4 = test system: OVCAR-4
OVCAR-5 = test system: OVCAR-5
OVCAR-8 = test system: OVCAR-8
RPMI-8226 = test system: RPMI-8226
RXF 393 = test system: RXF 393
SF-268 = test system: SF-268
SF-295 = test system: SF-295
SF-539 = test system: SF-539
SK-MEL-28 = test system: SK-MEL-28
SK-MEL-2 = test system: SK-MEL-2
SK-MEL-5 = test system: SK-MEL-5
SK-OV-3 = test system: SK-OV-3
SN12C = test system: SN12C
SNB-19 = test system: SNB-19
SNB-75 = test system: SNB-75
SNB-78 = test system: SNB-78
SR = test system: SR
SW-620 = test system: SW-620
TK-10 = test system: TK-10
U-251 = test system: U-251
UACC-257 = test system: UACC-257
UACC-62 = test system: UACC-62
UO-31 = test system: UO-31
XF498 = test system: XF498

CCCCCCCCC[C@@H]1CC(=O)OCC2OC(O[C@H](CCCCCCCCC)CC(=O)OCC3OC(O[C@H](CCCCCCCCC)CC(=O)OCC4OC(O1)C(O)C(O)C4O)C(O)C(O)C3O)C(O)C(O)C2O (stereo partly drawn)
GI50 (786-0): 0.957 µM (active)
GI50 (A498): 14.5 µM (inactive)
GI50 (A549): 14.7 µM (inactive)
GI50 (ACHN): 13.2 µM (inactive)
GI50 (CAKI-1): 3.21 µM (inactive)
GI50 (CCRF-CEM): 5.79 µM (inactive)
GI50 (COLO 205): 2.52 µM (inactive)
GI50 (DLD-1): 14 µM (inactive)
GI50 (DMS-114): 8.89 µM (inactive)
GI50 (DMS-273): 8.65 µM (inactive)
GI50 (EKVX): 12 µM (inactive)
GI50 (HCC 2998): 12 µM (inactive)
GI50 (HCT-116): 8.18 µM (inactive)
GI50 (HCT-15): 5.43 µM
GI50 (HL-60): 14.3 µM (inactive)
GI50 (HOP-18): < 0.01 µM (active)
GI50 (HOP-62): 12.3 µM (inactive)
GI50 (HOP-92): 7.05 µM (inactive)
GI50 (HT-29): 11.9 µM (inactive)
GI50 (IGROV-1): 14.5 µM (inactive)
GI50 (K562): 3.47 µM (inactive)
GI50 (KM-20L2): 6.46 µM (inactive)
GI50 (KM12): 6.5 µM (inactive)
GI50 (LOX IMVI): 3.52 µM (inactive)
GI50 (LXFL 529): 6.53 µM (inactive)
GI50 (M14): 4.97 µM (inactive)
GI50 (M19-MEL): 4.42 µM (inactive)
GI50 (MOLT-4): 6.22 µM (inactive)
GI50 (Malme-3M): 8.83 µM (inactive)
GI50 (NCI-H226): 3.9 µM (inactive)
GI50 (NCI-H23): 16 µM (inactive)
GI50 (NCI-H460): 5.13 µM (inactive)
GI50 (NCI-H522): 8.73 µM (inactive)
GI50 (OVCAR-3): 18 µM (inactive)
GI50 (OVCAR-4): 18.2 µM (inactive)
GI50 (OVCAR-5): 10.7 µM (inactive)
GI50 (OVCAR-8): 14.3 µM (inactive)
GI50 (RPMI-8226): 14.5 µM (inactive)
GI50 (RXF 393): 17 µM (inactive)
GI50 (SF-268): 2.94 µM (inactive)
GI50 (SF-295): 14.1 µM (inactive)
GI50 (SF-539): 10.3 µM (inactive)
GI50 (SK-MEL-28): 6.62 µM (inactive)
GI50 (SK-MEL-2): 8.67 µM (inactive)
GI50 (SK-MEL-5): 12.5 µM (inactive)
GI50 (SK-OV-3): 13.4 µM (inactive)
GI50 (SN12C): 13.7 µM (inactive)
GI50 (SNB-19): 8.89 µM (inactive)
GI50 (SNB-75): 9.27 µM (inactive)
GI50 (SNB-78): 17.3 µM (inactive)
GI50 (SR): 6.7 µM (inactive)
GI50 (SW-620): 5.83 µM (inactive)
GI50 (TK-10): 8.15 µM (inactive)
GI50 (U-251): 8.28 µM (inactive)
GI50 (UACC-257): 10.8 µM (inactive)
GI50 (UACC-62): 14.9 µM (inactive)
GI50 (UO-31): 9.4 µM (inactive)
GI50 (XF498): 7.74 µM (inactive)
